Laboratory results published in BindingDB's records for doi:10.1016/0960-894X(95)00399-E (1995).

Assays:
[1] = target: Gastrin/cholecystokinin type B receptor (Cavia porcellus); test: Binding affinity towards Cholecystokinin type B receptor was measured by displacement of [125I]CCK from guinea pig cortical membranes
[2] = target: Gastrin/cholecystokinin type B receptor (Cavia porcellus); test: as above; remark: listed apart in the source

| SMILES | IC50 [1] [nM] | IC50 [2] [nM] |
| --- | --- | --- |
| CC(=O)NS(=O)(=O)c1cccc(NC(=O)NC2N=C(C3CCCCC3)c3ccccc3N(C)C2=O)c1 (stereo not drawn) [N-Acetyl-3-[3-(5-cyclohexyl-1-methyl-2-oxo-2,3-dihydro-1H-benzo[e][1,4]diazepin-3-yl)-ureido]-benzenesulfonamide] | 0.36 | – |
| CN1C(=O)C(NC(=O)Nc2cccc(C(=O)O)c2)N=C(C2CCCCC2)c2ccccc21 (stereo not drawn) [3-[3-(5-Cyclohexyl-1-methyl-2-oxo-2,3-dihydro-1H-benzo[e][1,4]diazepin-3-yl)-ureido]-benzoic acid] | 1.4 | – |
| CN1C(=O)[C@H](NC(=O)Nc2cccc(C(=O)NS(=O)(=O)c3ccccc3)c2)N=C(C2CCCCC2)c2ccccc21 [N-{3-[3-((R)-5-Cyclohexyl-1-methyl-2-oxo-2,3-dihydro-1H-benzo[e][1,4]diazepin-3-yl)-ureido]-benzoyl}-benzenesulfonamide] | – | 0.73 |
